Columns and labels:
[1] = Osmoprotective activity: cell viability (XTT assay) under hyperosmolar stress; assay type: cell-based, human; conditions: human, 0 h (pre-osmotic stress, after 17 h preincubation)
Method: (§1) A study was carried out to determine the osmoprotective capacity of sodium lipoate (A) during hyperosmolar stress on human conjunctival (WKD) and corneal (HCE) cells. The osmoprotective activity of A, then A with B and C, was evaluated by measuring cell viability in particular. To that end, cells were preincubated for 17 h with the test substance(s). Next, the medium was removed and the cells were subjected to hyperosmolar stress by addition of sodium chloride (100 mM NaCl) to the culture medium (M199 for the WKD cells and KSFM for the HCE cells). Cellgrowth control cells were contacted with isotonic medium. Cell viability was analyzed preosmotic stress (0 h) in order to measure the effect of the molecules remaining in contact with the cells during the 17 h of incubation, then at 4 h, 8 h and 24 h post-induction of osmotic stress. The cell viability measurement was carried out via an XTT assay. Various concentrations of A were tested for the “molecule alone” tests: 0.0005%, 0.001%, 0.005%, 0.01% and 0.05% w/v. For the molecule mixture tests, the following concentrations were tested: for A: 0.001%, 0.005%, and 0.01% w/v; for B: 0.25% w/v; and for C: 0.5% and 1% w/v. To ensure the validity and the significance of the data, the results obtained were analyzed statistically. The results presented below result from the mean of 3 independent repetitions, carried out on different days.

[2] = tested on: human conjunctival (WKD) and corneal (HCE) cells; experiment: as above; assay type: cell-based; conditions: Homo sapiens, HCE; for viability at 0.0005 % strength: 0.0005% w/v; for viability at 0.001 % strength: 0.001% w/v; for viability at 0.005 % strength: 0.005% w/v; for viability at 0.01 % strength: 0.01% w/v; for viability at 0.05 % strength: 0.05% w/v
Method: as §1

[3] = 4 h post-induction of osmotic stress (100 mM NaCl)
[4] = 8 h post-induction of osmotic stress (100 mM NaCl)
[5] = 24 h post-induction of osmotic stress (100 mM NaCl)

O=C(O)CCCCC1CCSS1 (centres unmarked) [sodium lipoate, 5-(1,2dithiolan-3-yl)pentanoic acid]
viability at 17 h, 0.0005 % w/v ([1]; 0.0005% w/v): 99.9%
viability at 17 h, 0.001 % w/v ([1]; 0.001% w/v): 98.5%
viability at 17 h, 0.005 % w/v ([1]; 0.005% w/v): 103%
viability at 17 h, 0.01 % w/v ([1]; 0.01% w/v): 98.1%
viability at 17 h, 0.05 % w/v ([1]; 0.05% w/v): 56.3%
viability at 0.0005 % strength [2, 3]: 62.7%
viability at 0.0005 % strength [2, 4]: 38.5%
viability at 0.0005 % strength [2, 5]: 18.8%
viability at 0.001 % strength [2, 3]: 69.6%
viability at 0.001 % strength [2, 4]: 42.4%
viability at 0.001 % strength [2, 5]: 18.5%
viability at 0.005 % strength [2, 3]: 109%
viability at 0.005 % strength [2, 4]: 76.1%
viability at 0.005 % strength [2, 5]: 12.6%
viability at 0.01 % strength [2, 3]: 120%
viability at 0.01 % strength [2, 4]: 82.9%
viability at 0.01 % strength [2, 5]: 8.9%
viability at 0.05 % strength [2, 3]: 46%
viability at 0.05 % strength [2, 4]: 27.8%
viability at 0.05 % strength [2, 5]: 2.7%

Source: US10940206B2, “Ophthalmic composition comprising lipoic acid and a mucomimetic polymer” (OPHTALMIS MONACO, priority 2015, dated 2021)
